Our source for the IC50 values is BindingDB's records for doi:10.1016/S0045-2068(03)00026-9 (Keio University, 2003).

SMILES strings stand for the structures. pIC50: −log10 of the molar value.

For this assay, the target named is T1, Polyphenol oxidase 2 (Agaricus bisporus, UniProt O42713).
T1 sequence (O42713 whole entry): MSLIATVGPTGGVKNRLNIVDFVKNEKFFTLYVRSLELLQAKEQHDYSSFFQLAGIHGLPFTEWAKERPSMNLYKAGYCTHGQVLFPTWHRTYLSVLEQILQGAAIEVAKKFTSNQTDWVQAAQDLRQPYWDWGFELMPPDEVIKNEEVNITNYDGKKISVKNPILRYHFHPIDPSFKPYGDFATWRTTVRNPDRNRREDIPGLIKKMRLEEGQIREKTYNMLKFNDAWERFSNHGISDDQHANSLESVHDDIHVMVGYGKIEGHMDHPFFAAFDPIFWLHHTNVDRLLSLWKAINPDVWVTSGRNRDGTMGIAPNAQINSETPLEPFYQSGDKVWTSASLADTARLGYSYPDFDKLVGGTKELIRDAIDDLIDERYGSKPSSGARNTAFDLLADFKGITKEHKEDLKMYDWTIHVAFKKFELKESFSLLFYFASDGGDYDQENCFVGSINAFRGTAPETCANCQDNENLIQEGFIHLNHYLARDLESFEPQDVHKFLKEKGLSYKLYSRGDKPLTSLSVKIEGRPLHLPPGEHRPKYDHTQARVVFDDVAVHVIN
Put plainly: Spectrophotometic Assay. The settings on record: pH 6.8; 30 °C. The source says: The IC50 values were obtained from a spectrophotometric assay.

On to `O=NN(O)Cc1cc(O)ccc1O` [N-nitrosohydroxylamine N-substituted, 8], for which the negative logarithm of the IC50 (pIC50) was 4.62.
Next, `COc1ccc(CN(O)N=O)cc1` [N-nitrosohydroxylamine N-substituted, 10]: 5.01; `O=NN(O)Cc1ccc(O)cc1O` [N-nitrosohydroxylamine N-substituted, 7]: 4.94; `CC(C)(C)c1ccc(CN(O)N=O)cc1` [N-nitrosohydroxylamine N-substituted, 11]: 4.80.
Under `O=NN(O)Cc1ccccc1O` [N-nitrosohydroxylamine N-substituted, 4] stands 4.72; under `O=NN(O)Cc1ccc(Cl)cc1` [N-nitrosohydroxylamine N-substituted, 9], 4.88; under `O=NN(O)Cc1cccc(O)c1` [N-nitrosohydroxylamine N-substituted, 5], 4.69.
For `O=NN(O)Cc1ccc(O)cc1` [N-nitrosohydroxylamine N-substituted, 6], the pIC50 is 4.86.
